The values below come from patent publication US20030061759A1, “Method for expelling harmful insects by volatilization of a chemical” (FUMAKILLA LIMITED, priority 2000, published 2003).

In data set [1] the test system is female adult common house mosquitoes (Culex pipiens pallens). Nature of the data set: Example 1: spontaneous volatilization efficaciousness test in 33 m^3 room (knockdown, KT50). The format is in vivo. The text has this: Using sample chemicals A, B and C screened out by the preliminary tests, the efficaciousness of each of them when allowed to volatilize spontaneously was compared with that of transfluthrin when allowed to volatilize spontaneously.
Sample Preparations (Chemicals and Their Carriers According to the Present Invention):
A non-woven polypropylene fabric (made by Idemitsu Petroleum Chemicals Co., Ltd., product name RW2100, density 100 grams/m^2) of 50 cm×40 cm was coated with a hexane solution of 100 milliliter containing 1% (W/V) sample chemicals A, B, C and left to dry for 24 hours (effective amount of chemical: 1000 milligrams).
Comparative Preparation (Chemical and its Carrier):
A non-woven polypropylene fabric (made by Idemitsu Petroleum Chemicals Co., Ltd., product name RW2100, density 100 grams/m^2) of 50 cm×40 cm was coated with a hexane solution of 100 milliliter containing 1% (W/V) of transfluthrin and left to dry for 24 hours (effective amount of chemical: 1000 milligrams).
Testing Method: Efficaciousness Tests in an 8 Straw Mat room with a volume of 33 m^3
In the center of the test room with a volume of 33 m^3 (3.65 m×3.65 m×2.5 m high), each chemical carrier as prepared as above was placed as hung on a hook suspended in the center of the room to let the corresponding chemical volatilize spontaneously for a period of 3 hours. Thereafter, a triangular net casing (20 cm×20 cm×16.4 cm high) of 16 mesh nylon net containing 10 (ten) female adult common house mosquitoes (Culex pipiens pallens) was placed as hung in an area at each of the four corners (spaced from the wall surfaces at a distance of 90 cm) at a height of 150 cm from the room floor and was exposed to the chemical atmosphere.
A test was also conducted likewise for the comparative carrier.
After the tests ended, the samples chemicals were let to volatilize spontaneously in the room having a constant temperature of 30° C. The same test was repeated at given intervals and efficaciousness was then examined each time.

Data set [2] is described as follows: Comparative vapor pressure tests by gas chromatography. The format is physicochemical. As for the experimental part:
2. Comparative Vapor Pressure Tests
Next, by using gas chromatography, the various chemicals including sample chemicals A, B and C screened out by the foregoing comparative debugging efficaciousness tests were compared with d,d-T80-prallethrin (Etoc) as regards to their vapor pressures.
The gas chromatography test included as its temperature conditions an initial temperature of 60° C., and a temperature rise of 5° C. per minute up to a maximum temperature of 250° C., which was held for a period of 5 minutes, whereupon the process ended.
The filler used was made up of methyl silicon polymer, which is non-polar.
It should also be noted that as an internal standard substance use was made of sebacic acid-n-butyl and which was added to confirm that there was no deviation in retention time from one test to another.
Retention times for the various chemicals are listed in Table 2 in the order of shorter to longer.

Data set [3] has as its system female adult stegomyia mosquitoes (Aedes albopictus). The experiment in a line: Comparative debugging efficaciousness tests: bloodsucking prevention on rats, liquid type electric mosquito repellent utensil. The format is in vivo. To be noted: for efficacy of preventing mosquitoes from bloodsucking rats compared with transfluthrin: comparison in words; for Potency Ratio (Etoc 100), of IC50 Value / Potency Ratio (Etoc 100), of IC90 Value: relative to d,d-T80-prallethrin (Etoc) = 100; for IC50 Value (amount of volatilization at a 50% rate of bloodsucking prevention) / IC90 Value (amount of volatilization at a 90% rate of bloodsucking prevention): 13.2 m^2 room, 32° C., 30 min pre-fumigation, 2 hours after release, rats. As for the experimental part: First, debugging efficaciousness tests were performed. For the criterion of judgment to compare degrees of efficaciousness, the effect of bloodsucking by mosquitoes of rats was adopted. Based on this, the following efficaciousness tests were carried out.
Comparative Debugging Efficaciousness Tests
Sample chemicals that were used were as follows: d,d-T80-prallethrin, transfluthrin, d1,d-T80-allethrin, d-T80-furamethrin, terallethrin and empenthrin; and pyrethroid technical products (sample chemicals) A, B, C, D, E, F, G and H.
Sample insects that were used were as follows: female adult stegomyia mosquitoes (Aedes albopictus) of Fumakilla (spelled phonetically) series 6th to 9th after emergence.
Sample chemical volatilizing form: A liquid type electric mosquito repellent utensil, a liquid agent (referred to below as “sample liquid”), obtained by diluting each of the sample chemicals with a solvent in a varying concentration, was allowed to volatilize.
Method used for tests: A test was conducted in two 8 straw mat (13.2 m^2) rooms, one as a treatment zone and the other as a non-treatment zone, both in a no-wind state and at a constant room temperature of 32° C.
In the treatment zone, three cages each with a rat confined therein were placed equidistantly spaced apart (about 20 cm) in the center of the test room. The mosquito repellent utensil placed on the floor surface of the center of the test room was preliminarily electrically energized for operation, and to thermally volatilize each of the sample liquids and fumigate the room therewith for a period of 30 minutes, and then about 100 (one hundred) of sample mosquitoes were released into the test room. After two hours following the release of the mosquitoes, all these sample mosquitoes were knocked-down by using a mosquito repellent mat, and the number of the mosquitoes which had bloodsucking was counted to find the proportion of bloodsucking.
In the non-treatment zone, also, after the 2 hours of bloodsucking, the proportion of bloodsucking was found.
A rate of bloodsucking prevention was derived from the proportions of bloodsucking in the treatment and non-treatment rooms as expressed by the following equation:
Rate of bloodsucking prevention =[(Total bloodsucking proportion in the non-treatment zone−Total bloodsucking proportion in the treatment zone)÷Total bloodsucking proportion in the non-treatment zone]×100
Also, on the basis of these amounts of volatilization and rates of bloodsucking prevention, an amount of volatilization at a 50% rate of bloodsucking prevention (IC50 value) and an amount of volatilization at a 90% rate of bloodsucking prevention (IC90 value) are found and shown in Table 1 below.

Setting [4] is: 60° C. initial, 5° C. per minute up to 250° C., non-polar methyl silicon polymer filler.

Read-outs that look alike come from different tables or passages of the source.

As for `CC=CC1C(C(=O)OCc2c(F)c(F)c(COC)c(F)c2F)C1(C)C` (stereo not drawn) [Sample Chemical A, 2,3,5,6-tetrafluoro-4-methoxymethylbenzyl 3-(1-propenyl)-2,2-dimethylcyclopropanecarboxylate], in data set [1] (comparison in words), the “potency and retention of potency compared with transfluthrin” value was “higher in potency and also longer in retention time than transfluthrin”. Besides, the KT50 stood at 6.53 min in data set [1] (elapsed time 0 hr); 4.52 min in data set [1] (elapsed time 168 hr); 5.38 min in data set [1] (elapsed time 336 hr); 6.28 min in data set [1] (elapsed time 504 hr); 7.25 min in data set [1] (elapsed time 672 hr); 9.60 min in data set [1] (elapsed time 864 hr). In addition, the KT50 in data set [1] (elapsed time 1056 hr) is 8.50 min; in data set [1] (elapsed time 1200 hr), 8.80 min; in data set [1] (elapsed time 1344 hr), 9.70 min; in data set [1] (elapsed time 1536 hr), 8.97 min; in data set [1] (elapsed time 1680 hr), 11.60 min; in data set [1] (elapsed time 1848 hr), 12.50 min. The KT50 is recorded as 11.50 min in data set [1] (elapsed time 2016 hr); 13.60 min in data set [1] (elapsed time 2208 hr); 16.80 min in data set [1] (elapsed time 2352 hr); 17.20 min in data set [1] (elapsed time 2520 hr); 18.60 min in data set [1] (elapsed time 2688 hr); 17.70 min in data set [1] (elapsed time 2856 hr). Further, the KT50 is 24.60 min in data set [1] (elapsed time 3024 hr), 27.80 min in data set [1] (elapsed time 3192 hr) and 31.60 min in data set [1] (elapsed time 3360 hr). In addition, the “Retention Time (gas chromatography, as comparison of vapor pressure)” value (“Retention Time” below) in data set [2] (setting [4]) was 25.1 min. Besides, the “vapor pressure compared with transfluthrin and d,d-T80-prallethrin” value in data set [2] (from GC retention times) was “lower than transfluthrin, but higher than d,d-T80-prallethrin”. For the same compound, in data set [3], the “efficacy of preventing mosquitoes from bloodsucking rats compared with transfluthrin” value (“efficacy … compared with transfluthrin” for short) is on record as “more efficacious than transfluthrin”. In data set [3], the “Potency Ratio (Etoc 100), of IC50 Value” is 197.1. The “Potency Ratio (Etoc 100), of IC90 Value” in data set [3] is given as 496.8.

`C#CCc1ccc(COC(=O)C2C(C=C(C)C)C2(C)C)o1` (stereo not drawn) [d-T80-furamethrin]: in data set [3], the “IC50 Value (amount of volatilization at a 50% rate of bloodsucking prevention)” value came to 0.1170 mg/h; the “IC90 Value (amount of volatilization at a 90% rate of bloodsucking prevention)” value is 0.270 mg/h; the “efficacy … compared with transfluthrin” value was “lower effects of preventing mosquitoes from bloodsucking rats than transfluthrin”; the “Potency Ratio (Etoc 100), of IC50 Value” was 6.9. Further, the “Potency Ratio (Etoc 100), of IC90 Value” in data set [3] is 14.4.

For the compound `C#CCC1=C(C)C(OC(=O)C2C(C=C(C)C)C2(C)C)CC1=O` (stereo not drawn) [d,d-T80-prallethrin], the “Retention Time” value in data set [2] (setting [4]) is 27.1 min. Besides, in data set [3], the “IC50 Value (amount of volatilization at a 50% rate of bloodsucking prevention)” value was 0.0081 mg/h; the “IC90 Value (amount of volatilization at a 90% rate of bloodsucking prevention)” value came out at 0.039 mg/h; the “efficacy … compared with transfluthrin” value is “more efficacious than transfluthrin”; the “Potency Ratio (Etoc 100), of IC50 Value” was 100.0. In addition, the “Potency Ratio (Etoc 100), of IC90 Value” in data set [3] came to 100.0.

As for `C#CC(OC(=O)C1C(C=C(F)Cl)C1(C)C)C(C)=CCC` (stereo not drawn) [Sample Chemical H, 1-ethynyl-2-methyl-2-pentenyl 3-(2-chloro-2-fluorovinyl)-2,2-dimethylcyclopropanecarboxylate], in data set [3], the “Potency Ratio (Etoc 100), of IC50 Value” is 2.0 and the “Potency Ratio (Etoc 100), of IC90 Value” worked out at 3.1.

Consider `CC=CC1C(C(=O)OCc2c(F)c(F)c(C)c(F)c2F)C1(C)C` (stereo not drawn) [Sample Chemical G, 2,3,5,6-tetrafluoro-4-methylbenzyl 3-(1-propenyl)-2,2-dimethylcyclopropanecarboxylate], for which, in data set [3], the “Potency Ratio (Etoc 100), of IC50 Value” is 2.8 and the “Potency Ratio (Etoc 100), of IC90 Value” is 4.3.

As for `CC(C)=CC1C(C(=O)OCc2c(F)c(F)c(C)c(F)c2F)C1(C)C` (stereo not drawn) [Sample Chemical F, 2,3,5,6-tetrafluoro-4-methylbenzyl 3-(2-methyl-1-propenyl)-2,2-dimethylcyclopropanecarboxylate], in data set [3], the “Potency Ratio (Etoc 100), of IC50 Value” is on record as 6.6 and the “Potency Ratio (Etoc 100), of IC90 Value” amounted to 5.4.

Take `CC(C)=CC1C(C(=O)OCc2cccc(Oc3ccccc3)c2)C1(C)C` (stereo not drawn) [Phenothorin, reference compound]: the “Retention Time” value in data set [2] is 33.7 min.

For the compound `C=CCC1=C(C)C(OC(=O)C2C(C)(C)C2(C)C)CC1=O` (stereo not drawn) [Terallethrin], in data set [2], the “Retention Time” value amounted to 23.3 min. In data set [3], the “IC50 Value (amount of volatilization at a 50% rate of bloodsucking prevention)” value is 0.3650 mg/h; the “IC90 Value (amount of volatilization at a 90% rate of bloodsucking prevention)” value turned out to be 1.028 mg/h; the “efficacy … compared with transfluthrin” value is “lower effects of preventing mosquitoes from bloodsucking rats than transfluthrin”; the “Potency Ratio (Etoc 100), of IC50 Value” came out at 2.2. For the same compound, the “Potency Ratio (Etoc 100), of IC90 Value” in data set [3] was determined as 3.8.

In the case of `C#CC(OC(=O)C1C(C=C(C)C)C1(C)C)/C(C)=C/CC` (stereo not drawn) [Empenthrin], the “Retention Time” value in data set [2] (setting [4]) amounted to 20.1 min. Moreover, in data set [3], the “efficacy … compared with transfluthrin” value is recorded as “lower effects of preventing mosquitoes from bloodsucking rats than transfluthrin”; the “Potency Ratio (Etoc 100), of IC50 Value” was 0.7; the “Potency Ratio (Etoc 100), of IC90 Value” amounted to 1.2.

Consider `COc1c(F)c(F)c(COC(=O)C2C(C=C(Cl)Cl)C2(C)C)c(F)c1F` (stereo not drawn) [Sample Chemical D, 2,3,5,6-tetrafluoro-4-methoxybenzyl 3-(2,2-dichlorovinyl)-2,2-dimethylcyclopropanecarboxylate], for which, in data set [3], the “Potency Ratio (Etoc 100), of IC50 Value” is 17.5 and the “Potency Ratio (Etoc 100), of IC90 Value” is given as 21.3.

Regarding `C=CCC1=C(C)C(OC(=O)C2C(C=C(C)C)C2(C)C)CC1=O` (stereo not drawn) [d1,d-T80-allethrin], the “Retention Time” value in data set [2] is on record as 26.6 min. In addition, in data set [3], the “efficacy … compared with transfluthrin” value is given as “lower effects of preventing mosquitoes from bloodsucking rats than transfluthrin”; the “Potency Ratio (Etoc 100), of IC50 Value” worked out at 12.9; the “Potency Ratio (Etoc 100), of IC90 Value” came to 9.5.

With `COCc1c(F)c(F)c(COC(=O)C2C(C=C(C)C)C2(C)C)c(F)c1F` (stereo not drawn) [Sample Chemical E, 2,3,5,6-tetrafluoro-4-methoxymethylbenzyl 3-(2-methyl-1-propenyl)-2,2-dimethylcyclopropanecarboxylate], in data set [3], the “Potency Ratio (Etoc 100), of IC50 Value” stood at 13.7 and the “Potency Ratio (Etoc 100), of IC90 Value” worked out at 22.4.
